Results taken from the supplement of paper PMC13380429.

How the values were obtained:
Conditions in all cases: 72 h
[1] = system: U2OS; test: drug sensitivity score (DSS) for viability; higher = more toxic; extreme values may be limits of the assay
[2] = system: Vero E6; test: as above
[3] = system: Calu-3; test: as above
[4] = system: Caco-2; test: as above
[5] = system: HepG2; test: as above
[6] = system: U2OS; test: relative viability EC50 (midpoint between 100% and the lowest measured viability); higher = less toxic
[7] = system: Calu-3; test: as above
[8] = system: Caco-2; test: as above
[9] = system: HepG2; test: as above
[10] = system: U2OS; test: cell viability relative to DMSO; higher = less toxic
[11] = system: Vero E6; test: as above
[12] = system: Calu-3; test: as above
[13] = system: Caco-2; test: as above
[14] = system: HepG2; test: as above
[15] = system: Vero E6; test: relative viability EC50 (midpoint between 100% and the lowest measured viability); higher = less toxic

Row | SMILES | drug sensitivity score [1] | drug sensitivity score [2] | drug sensitivity score [3] | drug sensitivity score [4] | drug sensitivity score [5] | relative viability EC50 [6] [µM] | relative viability EC50 [7] [µM] | relative viability EC50 [8] [µM] | relative viability EC50 [9] [µM] | cell viability ([10]; 1 nM) [%] | cell viability ([10]; 10 nM) [%] | cell viability ([10]; 100 nM) [%] | cell viability ([10]; 1000 nM) [%] | cell viability ([10]; 10000 nM) [%] | cell viability ([11]; 1 nM) [%] | cell viability ([11]; 10 nM) [%] | cell viability ([11]; 100 nM) [%] | cell viability ([11]; 1000 nM) [%] | cell viability ([11]; 10000 nM) [%] | cell viability ([12]; 1 nM) [%] | cell viability ([12]; 10 nM) [%] | cell viability ([12]; 100 nM) [%] | cell viability ([12]; 1000 nM) [%] | cell viability ([12]; 10000 nM) [%] | cell viability ([13]; 1 nM) [%] | cell viability ([13]; 10 nM) [%] | cell viability ([13]; 100 nM) [%] | cell viability ([13]; 1000 nM) [%] | cell viability ([13]; 10000 nM) [%] | cell viability ([14]; 1 nM) [%] | cell viability ([14]; 10 nM) [%] | cell viability ([14]; 100 nM) [%] | cell viability ([14]; 1000 nM) [%] | cell viability ([14]; 10000 nM) [%] | relative viability EC50 [15] [µM]
1 | O=C1CNC(=O)CN1 [piperazinedione] | 0 | 2.1 | 0 | 0 | 0 | > 10 | > 10 | > 10 | > 10 | 99 | 99 | 97.4 | 101 | 99.8 | 99.5 | 96.4 | 102 | 91.4 | 74.7 | 91.8 | 99.4 | 91.8 | 93.4 | 94 | 98.3 | 102 | 98.9 | 99.4 | 94.8 | 102 | 94.9 | 96.4 | 100 | 103 | –
2 | C=CC1=C(C)c2cc3[nH]c(cc4nc(cc5[nH]c(cc1n2)c(C)c5CCC(=O)O)C(CCC(=O)O)=C4C)c(C)c3C=C [protoporphyrin-IX] | 0 | 2.6 | 0.6 | 1.4 | 0.8 | > 10 | > 10 | > 10 | > 10 | 101 | 101 | 98.2 | 101 | 88.6 | 99.8 | 71.4 | 110 | 75.2 | 78.6 | 97.4 | 93.8 | 105 | 97.5 | 84.1 | 101 | 102 | 92.7 | 94.4 | 76.4 | 102 | 91.1 | 105 | 94.2 | 84.6 | –
3 | CNC(=O)c1cc(Oc2ccc(NC(=O)Nc3ccc(Cl)c(C(F)(F)F)c3)c(F)c2)ccn1 [regorafenib] | 2.4 | 1.8 | 0.8 | 1.2 | 9.3 | – | – | – | 1.03 | 96.9 | 103 | 100 | 99.8 | 54.5 | 94.7 | 98.9 | 104 | 102 | 60.6 | 102 | 98.8 | 105 | 104 | 74.2 | 100 | 105 | 97 | 108 | 66.3 | 102 | 106 | 94.4 | 59.8 | 16.5 | –
4 | O=C(O)c1ccccc1O [salicylic-acid] | 0 | – | 0 | 0 | 0 | > 10 | > 10 | > 10 | > 10 | 99.8 | 99.6 | 98.5 | 96.5 | 102 | – | – | – | – | – | 105 | 91.8 | 90.6 | 88.9 | 105 | 103 | 97 | 105 | 94.7 | 96.6 | 95.4 | 96.1 | 99.3 | 97 | 108 | –
5 | CC(C)(C)NCC(O)COc1ccc(NC(=O)NC2CCCCC2)cc1 (stereo not drawn) [talinolol] | 0 | 0 | 0 | – | 0 | – | – | – | – | – | – | – | – | – | – | – | – | – | – | – | – | – | – | – | – | – | – | – | – | – | – | – | – | – | –
6 | Cc1coc2c1C(=O)C(=O)c1c-2ccc2c1CCCC2(C)C [tanshinone-IIA] | 1 | 0 | 0 | 0.7 | 3.7 | – | > 10 | > 10 | – | 102 | 99.2 | 95.7 | 99.6 | 74.9 | 106 | 104 | 103 | 101 | 97.4 | 109 | 105 | 101 | 94.1 | 101 | 97.6 | 95.7 | 92.9 | 103 | 77 | 90.6 | 105 | 96.5 | 91.4 | 55.4 | > 10
7 | Cc1ccc(NC2=NCCN2)c(Cl)c1 [tolonidine] | 0 | – | 0 | 0 | 0 | > 10 | > 10 | > 10 | > 10 | 101 | 106 | 97.3 | 102 | 96.3 | – | – | – | – | – | 101 | 112 | 96.5 | 106 | 99.3 | 90.3 | 101 | 93.9 | 99 | 99.5 | 116 | 109 | 109 | 99 | 111 | –
8 | NC[C@H]1CC[C@H](C(=O)O)CC1 [tranexamic-acid] | – | 0 | 0 | 0 | – | – | > 10 | > 10 | – | – | – | – | – | – | 98.1 | 101 | 105 | 94.4 | 103 | 101 | 95.5 | 87.8 | 94.7 | 90.9 | 106 | 105 | 104 | 98.3 | 96.4 | – | – | – | – | – | > 10
